From US9481682B2, “Substituted benzamides and substituted pyridinecarboxamides as Btk inhibitors” (MERCK SHARP & DOHME CORP., priority 2013, dated 2016)
Read-outs that look alike come from different tables or passages of the source.

How the values were obtained:
[1] = system: HeLa cells; test: [3H]Adenosine uptake functional cellular assay; format: cell-based; details: accumulation of [3H]adenosine into HeLa cells, read-out: Adenosine uptake inhibition IC50
Procedure: Compounds are also screened in an adenosine uptake functional cellular assay using the protocol described below. The adenosine uptake inhibition assay may be used to identify compounds with the potential for a negative cardiovascular side effect.
Adenosine uptake activity was determined by monitoring the accumulation of tritiated adenosine into HeLa cells (ATCC catalog #CCL-2) using a PMT-based radiometric detection instrument. […] These cells were incubated overnight at 37° C. in a humidified atmosphere with 5% (v/v) CO2. After this time the growth medium was removed and replaced with 40 μL assay medium comprising: Hanks balanced salts solution (HBSS; Thermo Fisher Catalog #SH30268.01)+5% (v/v) FBS. […] Following this incubation, 20 μL of 500 nM [^3H]adenosine (American Radiolabeled Chemicals Inc. […] The amount of radiolabel accumulation was then determined using a Perkin Elmer Topcount NXT microplate reader. In brief, HeLa cells adhere to the bottom of the Cytostar-T plate, uptake of [^3H]adenosine into these cells brings the radiolabel into sufficient proximity to excite the scintillant in the base of the plates. These events are captured by single PMT, time-resolved coincidence counting. IC50 values were determined by 4 parameter robust fit of counts per second values vs. (Log10) compound concentrations.

[2] = target: hBTK (recombinant full-length BTK) (Homo sapiens (Human), UniProt Q06187); test: BTK enzymatic activity, LANCE TR-FRET assay; format: biochemical; details: 50 pM hBTK, 2 μM biotin-A5-peptide, 25 μM ATP; 60 minute compound & enzyme incubation
Procedure: BTK enzymatic activity was determined with the LANCE (Lanthanide Chelate Excite) TR-FRET (Time-resolved fluorescence resonance energy transfer) assay. […] Phosphorylation reactions were allowed to proceed for 120 minutes. […] After 60 minutes incubation with detection reagents, reaction plates were read on a PerkinElmer EnVision plate reader using standard TR-FRET protocol. […] IC50 values were determined by 4 parameter robust fit of TR-FRET ratio values vs. (Log10) compound concentrations.

[3] = Homo sapiens, compound range 10 μM to 0.032 nM

Sequence of hBTK (recombinant full-length BTK) (Q06187 whole entry): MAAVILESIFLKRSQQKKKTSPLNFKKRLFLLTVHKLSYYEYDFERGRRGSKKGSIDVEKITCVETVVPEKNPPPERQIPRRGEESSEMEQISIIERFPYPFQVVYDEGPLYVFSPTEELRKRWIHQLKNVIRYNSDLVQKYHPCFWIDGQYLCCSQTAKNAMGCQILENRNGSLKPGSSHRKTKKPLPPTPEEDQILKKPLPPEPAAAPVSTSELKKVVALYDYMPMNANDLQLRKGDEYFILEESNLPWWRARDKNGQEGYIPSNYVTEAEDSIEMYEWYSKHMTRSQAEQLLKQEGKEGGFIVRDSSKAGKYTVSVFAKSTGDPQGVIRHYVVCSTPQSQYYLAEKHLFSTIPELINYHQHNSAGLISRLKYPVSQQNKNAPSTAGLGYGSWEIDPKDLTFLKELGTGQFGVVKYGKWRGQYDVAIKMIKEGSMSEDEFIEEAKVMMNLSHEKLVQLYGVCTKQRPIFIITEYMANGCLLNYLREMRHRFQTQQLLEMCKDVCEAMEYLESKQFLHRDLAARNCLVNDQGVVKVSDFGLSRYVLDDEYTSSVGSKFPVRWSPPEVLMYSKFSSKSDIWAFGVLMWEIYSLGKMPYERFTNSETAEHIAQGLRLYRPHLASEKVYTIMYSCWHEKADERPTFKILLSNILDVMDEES

Structure (SMILES)	IC50 [1, 3]	IC50 [2]	IC50 ([1]; compound range 10 μM to […])
Nc1nccn2c([C@@H]3CC[C@@H]4C[C@H](O)C(=O)N4C3)nc(-c3ccc(C(=O)Nc4cc(C(F)(F)F)ccn4)cc3)c12 [Example 72, 4-{8-amino-3-[(2S,6R,8aR)-2-hydroxy-3-oxooctahydroindolizin-6-yl]imidazo[1,5-a]pyrazin-1-yl}-N-[4-(trifluoromethyl)pyridin-2-yl]benzamide]	0.73 µM	0.45 nM	–
Nc1nccn2c([C@H]3CC[C@H]4C[C@@H](O)C(=O)N4C3)nc(-c3ccc(C(=O)Nc4cc(C(F)(F)F)ccn4)cc3)c12 [Example 74, 4-{8-amino-3-[(2R,6S,8aS)-2-hydroxy-3-oxooctahydroindolizin-6-yl]imidazo[1,5-a]pyrazin-1-yl}-N-[4-(trifluoromethyl)pyridin-2-yl]benzamide]	1.3 µM	4.6 nM	–
CN1CC[C@@H]2CC[C@@H](c3nc(-c4ccc(C(=O)Nc5cc(C(F)(F)F)ccn5)cc4)c4c(N)nccn34)CN2C1=O [Example 83, 4-(8-amino-3-((4aS,7R)-2-methyl-1-oxooctahydro-1H-pyrido[1,2-c]pyrimidin-7-yl)imidazol[1,5-a]pyrazin-1-yl)-N-(4-(trifluoromethyl)pyridin-2-yl)benzamide]	–	0.092 nM	0.124 µM
COc1cc(C(=O)Nc2cc(C(F)(F)F)ccn2)ccc1-c1nc([C@@H]2CC[C@H]3CN(C(=O)c4ccncc4)CC(=O)N3C2)n2ccnc(N)c12 [Example 85, 4-(8-amino-3-((7R,9aS)-2-isonicotinoyl-4-oxooctahydro-1H-pyrido[1,2-a]pyrazin-7-yl)imidazo[1,5-a]pyrazin-1-yl)-3-methoxy-N-(4-(trifluoromethyl)pyridin-2-yl)benzamide]	2.78 µM	–	–
Nc1nccn2c([C@@H]3CC[C@H]4CCC(=O)N4C3)nc(-c3ccc(C(=O)Nc4cc(C(F)(F)F)ccn4)cc3OCCO)c12 [Example 200, 4-{8-amino-3-[(6R,8aS)-3-oxooctahydroindolizin-6-yl]imidazo[1,5-a]pyrazin-1-yl}-3-(2-hydroxyethoxy)-N-[4-(trifluoromethyl)pyridin-2-yl]benzamide]	5.45 µM	–	–

Second part, the compound after the results:

IC50 [1, 3]	IC50 [2]	IC50 ([1]; compound range 10 μM to […])	Structure (SMILES)
10 µM	–	–	Nc1nccn2c([C@H]3CC[C@H]4CNCC(=O)N4C3)nc(-c3ccc(C(=O)Nc4cc(C(F)(F)F)ccn4)cc3)c12 [Example 57, 4-{8-amino-3-[(7S,9aS)-4-oxooctahydro-2H-pyrido[1,2-a]pyrazin-7-yl]imidazo[1,5-a]pyrazin-1-yl}-N-[4-(trifluoromethyl)pyridin-2-yl]benzamide]
–	3 nM	0.155 µM	CN1CC[C@H]2CC[C@H](c3nc(-c4ccc(C(=O)Nc5cc(C(F)(F)F)ccn5)cc4)c4c(N)nccn34)CN2C1=O [Example 84, 4-(8-amino-3-((4aR,7S)-2-methyl-1-oxooctahydro-1H-pyrido[1,2-c]pyrimidin-7-yl)imidazol[1,5-a]pyrazin-1-yl)-N-(4-(trifluoromethyl)pyridin-2-yl)benzamide]
10 µM	–	–	NC(=O)c1cc(C(=O)Nc2cc(C(F)(F)F)ccn2)ccc1-c1nc([C@@H]2CC[C@H]3CCC(=O)N3C2)n2ccnc(N)c12 [Example 124, 4-{8-amino-3-[(6R,8aS)-3-oxooctahydroindolizin-6-yl]imidazo[1,5-a]pyrazin-1-yl}-N~1~-[4-(trifluoromethyl)pyridin-2-yl]benzene-1,3-dicarboxamide]
10 µM	–	–	Cn1nc(NC(=O)c2ccc(-c3nc([C@@H]4CC[C@H]5CCC(=O)N5C4)n4ccnc(N)c34)c(OC3CNC3)c2)cc1C(F)(F)F [Example 149, 4-{8-amino-3-[(6R,8aS)-3-oxooctahydroindolizin-6-yl]imidazo[1,5-a]pyrazin-1-yl}-3-(azetidin-3-yloxy)-N-[1-methyl-5-(trifluoromethyl)-1H-pyrazol-3-yl]benzamide]
7.09 µM	1.9 nM	–	COCCOc1cc(C(=O)Nc2cccc(C(F)(F)F)c2)ccc1-c1nc([C@@H]2CC[C@H]3CCC(=O)N3C2)n2ccnc(N)c12 [Example 199, 4-(8-amino-3-((6R,8aS)-3-oxooctahydroindolizin-6-yl)imidazo[1,5-a]pyrazin-1-yl)-3-(2-methoxyethoxy)-N-(3-(trifluoromethyl)phenyl)benzamide]
